As a reminder, the IC50 is the point on the concentration scale where inhibition reaches its midpoint.

The values below come from patent EP4803519A1, “NOVEL PRMT5 INHIBITOR AND USE THEREOF” (Shanghai Apeiron Therapeutics Company Limited, priority 2023, dated 2025).

Common to all, as to assay type: cell-based
In experiment [1] the test system is LU99 MTAP(-/-)deleted cells. The experiment can be described thus: Inhibitory activity on proliferation of LU99 MTAP(-/-)deleted cells (Cell-Titer Glo). The following applies: Homo sapiens, Lu-99, 144 h, incubated 6 d, 0-1,000 nM. As to the method: Materials and cells: LU99 MTAP deleted cell line was purchased from Kyinno Biotechnology (China); cell culture medium and fetal bovine serum were purchased from Thermo Fisher Scientific (USA); 384-well plates were purchased from PerkinElmer (USA); Cell-Titer Glo kits were purchased from Promega (USA).
Cell culture: LU99 MTAP(-/-)deleted cells were cultured with medium containing 10% fetal bovine serum at 37°C in 5% carbon dioxide. Only cells in the logarithmic growth phase could be used for the test.
(§1) Test of inhibitory activity on cell proliferation: The Cell-Titer Glo kit was used to test the proliferation inhibitory activity of the compounds on LU99 MTAP(-/-)deleted cells. The cell concentration was adjusted, rendering that cells were inoculated into a 384-well plate at 40 µL per well and incubated overnight at 37°C and 5% carbon dioxide. 40 nL of the compound was added to each well to reach a final concentration of 0-1,000 nM (starting concentration 1,000 nM, 2.5-fold dilution, 10 points), and the cell plate with 0.2% DMSO content was incubated at 37°C and 5% carbon dioxide for 6 d. 40 µL of Cell-Titer Glo reagent was added to test cell viability.

Experiment [2] relates to HCT-116 wild-type cells. The experiment can be described thus: Inhibitory activity on proliferation of HCT-116 wild-type cells (Cell-Titer Glo). The following applies: Homo sapiens, 144 h, incubated 6 d, 0-10,000 nM. As to the method: Materials and cells: HCT-116 wild-type cells were purchased from Kyinno Biotechnology (China); RPMI-1640 medium, and fetal bovine serum were purchased from Thermo Fisher (United States); 384-well plates were purchased from PerkinElmer (United States); Cell-Titer Glo kit was purchased from Promega (United States).
Cell culture: HCT-116 wild-type cells were cultured in RPMI-1640 medium containing 10% fetal bovine serum at 37°C and 5% carbon dioxide. Only cells in the logarithmic growth phase could be used for the test.
Test of cell proliferation activity: Cell-Titer Glo kit was used to test the proliferation inhibitory activity of the compound on HCT-116 wild-type cells. The cell concentration was adjusted, rendering that cells were inoculated into a 384-well plate at 40 µL per well and incubated overnight at 37°C and 5% carbon dioxide. 80 nL of the compound was added to each well to reach a final concentration of 0-10,000 nM (starting concentration 10,000 nM, 2.5-fold dilution, 10 points), and the cell plate with 0.2% DMSO content was incubated at 37°C and 5% carbon dioxide for 6 d. 40 µL of Cell-Titer Glo reagent was added to test cell viability.

Experiment [3] relates to LU99 MTAP overexpressing cells. The experiment can be described thus: Inhibitory activity on proliferation of LU99 MTAP overexpressing cells (Cell-Titer Glo). Particulars: Homo sapiens, Lu-99, 144 h, incubated 6 d, 0-10,000 nM. As to the method: Materials and cells: LU99 MTAP overexpressing cell line was purchased from Kyinno Biotechnology (China); cell culture medium and fetal bovine serum were purchased from Thermo Fisher Scientific (USA); 384-well plates were purchased from PerkinElmer (USA); Cell-Titer Glo kits were purchased from Promega (USA).
Cell culture: LU99 MTAP overexpressing cells were cultured with medium containing 10% fetal bovine serum at 37°C in 5% carbon dioxide. Only cells in the logarithmic growth phase could be used for the test.
as §1, with “MTAP overexpressing” for “MTAP(-/-)deleted”, “0-10,000” for “0-1,000”, “10,000” for “1,000”

The subject of experiment [4] is HCT-116 MTAP(-/-)deleted cells. The experiment can be described thus: Inhibitory activity on proliferation of HCT-116 MTAP(-/-)deleted cells (Cell-Titer Glo). Particulars: Homo sapiens, 144 h, incubated 6 d, 0-1,000 nM. As to the method: Materials and cells: HCT-116 MTAP(-/-)deleted cells were purchased from Kyinno Biotechnology (China); RPMI-1640 medium, and fetal bovine serum were purchased from Thermo Fisher (United States); 384-well plates were purchased from PerkinElmer (United States); Cell-Titer Glo kit was purchased from Promega (United States).
Cell culture: HCT116 MTAP(-/-)deleted cells were cultured with RPMI 1640 medium containing 10% fetal bovine serum at 37°C in 5% carbon dioxide. Only cells in the logarithmic growth phase could be used for the test.
as §1, with “compounds on HCT-116 MTAP(-/-)deleted cells.” for “compounds on LU99 MTAP(-/-)deleted cells.”, “carbon dioxide. 80 nL of” for “carbon dioxide. 40 nL of”, “was added into each well” for “was added to each well”

For the compound `CN(C(=O)c1ccc2nc(N)c3c(c2c1)CCO3)C1COC(C)(C)c2cc(C(F)(F)F)ccc21` (centres unmarked) [Example 4, 4-Amino-N-(1,1-dimethyl-7-(trifluoromethyl)isochroman-4-yl)-N-methyl-1,2-dihydrofuro[2,3-c]quinoline-8-carboxamide], the IC50 turned out to be 2260 nM in experiment [1], 8140 nM in experiment [2], 3270 nM in experiment [3] and 1090 nM in experiment [4].

Consider `CN(C(=O)c1cc2c3c(c(N)nc2cn1)COC3)C1COC(C)(C)c2cc(C(F)(F)F)ccc21` (centres unmarked) [Example 5, 4-Amino-N-(1,1-dimethyl-7-(trifluoromethyl)isochroman-4-yl)-N-methyl-1,3-dihydrofuro[3,4-c][1,7]naphthyridine-8-carboxamide], for which the IC50 came to 37.1 nM in experiment [1], 7770 nM in experiment [2], 4980 nM in experiment [3] and 28.2 nM in experiment [4].

`CN(C(=O)c1ccc2nc(N)c3c(c2c1)OCC3)C1COC(C)(C)c2cc(C(F)(F)F)ccc21` (centres unmarked) [Example 6, 4-Amino-N-(1,1-dimethyl-7-(trifluoromethyl)isochroman-4-yl)-N-methyl-2,3-dihydrofuro[3,2-c]quinoline-8-carboxamide]: the IC50 in experiment [1] came to 355 nM; in experiment [2] it was 5950 nM; in experiment [3], 5940 nM; in experiment [4] it was 269 nM.

Turning to `CN(C(=O)c1ccc2nc(N)c3cnn(C)c3c2c1)C1COC(C)(C)c2cc(-c3cnn(C)c3)ccc21` (centres unmarked) [Example 7, 4-amino-N-(1,1-dimethyl-7-(1-methyl-1H-pyrazol-4-yl)isochroman-4-yl)-N,1-dimethyl-1H-pyrazolo[4,3-c]quinoline-8-carboxamide], the 50% inhibitory concentration (IC50) turned out to be 3.6 nM in experiment [1], 2520 nM in experiment [2], 3100 nM in experiment [3] and 5 nM in experiment [4].

Regarding `CN(C(=O)c1ccc2nc(N)c3c(c2c1)COC3)C1COC(C)(C)c2cc(C(F)(F)F)ccc21` (centres unmarked) [Example 8, 4-Amino-N-(1,1-dimethyl-7-(trifluoromethyl)isochroman-4-yl)-N-methyl-2,3-dihydrofuro[3,4-c]quinoline-8-carboxamide], the IC50 in experiment [1] came to 25.2 nM; in experiment [2], 3510 nM; in experiment [3], 3250 nM; in experiment [4], 16 nM.

Take `CN(C(=O)c1cc2c3c(c(N)nc2cn1)COC3)C1COC(C)(C)c2cc(-c3ccnn3C)ccc21` (centres unmarked) [Example 9, (4-Amino(1,3-dihydrofuro[3,4-d]pyrido[5,4-b]pyridin-8-yl))-N-[1,1-dimethyl-7-(1-methylpyrazol-5-yl)isochroman-4-yl]-N-methylformamide]: the IC50 in experiment [1] was 85 nM; in experiment [2], more than 10000 nM; in experiment [3] it was 9790 nM; in experiment [4] it was 45.4 nM.

As to `CN(C(=O)c1ccc2nc(N)c3c(c2c1)COC3)C1COC(C)(C)c2cc(-c3ccnn3C)ccc21` (centres unmarked) [Example 10, 4-Amino-N-(1,1-dimethyl-7-(1-methyl-1H-pyrazol-5-yl)isochroman-4-yl)-N-methyl-1,3-dihydrofuro[3,4-c]quinoline-8-carboxamide], the IC50 in experiment [1] worked out at 18.3 nM; in experiment [2] it was 2060 nM; in experiment [3] it was 3740 nM; in experiment [4], 10.1 nM.

Regarding `CC1OCc2c1c(N)nc1ccc(C(=O)N(C)C3COC(C)(C)c4cc(C(F)(F)F)ccc43)cc21` (centres unmarked) [Example 12, 4-Amino-N-(1,1-dimethyl-7-(trifluoromethyl)isochroman-4-yl)-N,3-dimethyl-1,3-dihydrofuro[3,4-c]quinoline-8-carboxamide], the concentration for half-maximal inhibition (IC50) stood at 32.3 nM in experiment [1], 2610 nM in experiment [2], 1990 nM in experiment [3] and 21.2 nM in experiment [4].

For the compound `CN(C(=O)c1cc2c(cc1F)nc(N)c1cnn(C)c12)C1COC(C)(C)c2cc(Br)ccc21` (centres unmarked) [Example 13, (4-Amino-7-fluoro-1-methylpyrazolo[4,5-c]quinolin-8-yl)-N-(7-bromo-1,1-dimethylisochroman-4-yl)-N-methylformamide], the IC50 in experiment [1] amounted to 18.9 nM; in experiment [2] it was 720 nM; in experiment [3], 1070 nM; in experiment [4], 10.9 nM.

Take `CN(C(=O)c1ccc2nc(N)c3cnn(C)c3c2c1)[C@@H]1COC(C)(C)c2cc(C3CCOCC3)ccc21` [Example 58, (S)-4-amino-N-(1,1-dimethyl-7-(tetrahydro-2H-pyran-4-yl)isochroman-4-yl)-N,1-dimethyl-1H-pyrazolo[4,3-c]quinoline-8-carboxamide]: the half-maximal inhibitory concentration (IC50) in experiment [1] turned out to be 5.5 nM; in experiment [3], 987 nM.

`CN(C(=O)c1ccc2nc(N)c3nsnc3c2c1)C1COC2(CCC2)c2cc(C(F)(F)F)ccc21` (centres unmarked) [Example 59, 4-Amino-N-methyl-N-(7'-(trifluoromethyl)spiro[cyclobutane-1,1'-isochroman]-4'-yl)-[1,2,5]thiadiazolo[3,4-c]quinoline-8-carboxamide]: the figures for the half-maximal inhibitory concentration (IC50) in experiment [1] and in experiment [3] were 3140 nM and 4020 nM, respectively.

Take `CN(C(=O)c1ccc2nc(N)c3nsnc3c2c1)C1COC(C)(C)c2cc(C(F)(F)F)ccc21` (centres unmarked) [Example 60, 4-Amino-N-(1,1-dimethyl-7-(trifluoromethyl)isochroman-4-yl)-N-methyl-[1,2,5]thiadiazolo[3,4-c]quinoline-8-carboxamide]: the half-inhibitory concentration (IC50) in experiment [1] is more than 3000 nM; in experiment [3], 2950 nM.

Regarding `CN(C(=O)c1ccc2nc(N)c3cnn(C)c3c2c1)[C@@H]1COC(C)(C)c2cc(N3CCS(=O)(=O)CC3)ccc21` [Example 78, […]], the IC50 amounted to 17 nM in experiment [1] and 3740 nM in experiment [3].

On to `CN(C(=O)c1cc2c(cn1)nc(N)c1cnn(C)c12)C1COC(C)(C)c2cc(C(F)(F)F)ncc21` (centres unmarked) [Example 79, 4-Amino-N-(1,1-dimethyl-7-(trifluoromethyl)-3,4-dihydro-1H-pyrano[4,3-c]pyridin-4-yl)-N,1-dimethyl-1H-pyrazolo[4,3-c][1,7]naphthyridine-8-carboxamide], for which the concentration for half-maximal inhibition (IC50) came out at 41.9 nM in experiment [1] and 4380 nM in experiment [3].

In the case of `CN(C(=O)c1ccc2nc(N)c3cnn(C)c3c2c1)[C@@H]1COC2(CCCC2)c2cc(C(F)(F)F)ccc21` [Example 82, (S)-4-amino-N,1-dimethyl-N-(7'-(trifluoromethyl)spiro[cyclopentane-1,1'-isochroman]-4'-yl)-1H-pyrazolo[4,3-c]quinoline-8-carboxamide], the concentration for half-maximal inhibition (IC50) in experiment [1] turned out to be 5.9 nM; in experiment [3], 523 nM.

On to `CN(C(=O)c1ccc2nc(N)c3cnn(C)c3c2c1)[C@@H]1COC(C)(C)c2cc(N3CC4CCC(C3)O4)ccc21` [Example 85, N-[(4S)-1,1-dimethyl-7-(8-oxa-3-azabicyclo[3.2.1]octan-3-yl)isochroman-4-yl](4-amino-1-methylpyrazolo[4,5-c]quinolin-8-yl)-N-methylformamide], for which the IC50 was 7.1 nM in experiment [1] and 2140 nM in experiment [3].
